Earlier results on eight compounds are cited in PubChem BioAssay AID1259409 (Chemical Carcinogenesis Research Information System (CCRIS), 2018).

The data set concerns rodent chemically induced tumor inhibition, incidence and multiplicity. As to the kind of experiment: CCRIS tumor inhibitor studies.
Setting [1] is: Carcinogen: BENZO[A]PYRENE, 50-32-8, Dose [Inhibitor]: 0.03 MMOL/G OF DIET DAILY STARTING 7 D BEFORE AND CONTINUING THROUGH 3 D AFTER CARCINOGEN TREATMENT FOLLOWED BY OBSERVAT, Route [Inhibitor]: ORAL, Species: MOUSE, Strain/Sex: ICR/FEMALE, Target Tissue: Type of Lesion: FORESTOMACH: NEOPLASM, Dose [Carcinogen]: 1 MG IN 0.2 ML CORN OIL 2/WK FOR 4 WK, Promoter: NONE USED.

Where “and” joins values, the source holds several entries; their conditions need not be identical. Equal entries are not always repeated.

On to `CC(C)C1CCC(O)CC1` (stereo not given), for which the “tumour outcome (control, treated, inhibition, significance)” value (Carcinogen: 7,12-DIMETHYLBENZ[A]ANTHRACENE, 57-97-6, Dose [Inhibitor]: 0, 12 NMOL PER REPEATED APPLICATION FOR 20 WK (STUDY DURATION: 20 WK), Route [Inhibitor]: DERMAL, Species: MOUSE, Strain/Sex: CD-1/FEMALE, Target Tissue: Type of Lesion: SKIN: TUMOR, Dose [Carcinogen]: 100 UG ONCE, Promoter: OKADAIC ACID, 78111-17-8) is listed as 87%, 50%, 43%, not calculated.
In the case of `CC1(C)OC(=O)C=C[C@]2(C)[C@H]3CC[C@@]4(C)[C@H](c5ccoc5)OC(=O)[C@H]5O[C@]54[C@]3(C)C(=O)C[C@@H]12`, the “tumour outcome (control, treated, inhibition, significance)” value (Carcinogen: AZOXYMETHANE, 25843-45-2, Dose [Inhibitor]: 0, 0.05% IN DIET FOR 35 WK BEGINNING 1 WK POST CARCINOGEN LAST DOSE (STUDY DURATION: 38 WK), Route [Inhibitor]: ORAL, Species: RAT, Strain/Sex: F344/MALE, Target Tissue: Type of Lesion: COLON: ADENOCARCINOMA, Dose [Carcinogen]: 20 MG/KG BW 1/WK FOR 2 WK) is 18/25 (72%), 2/16 (13%), 82%, p=0.0002 and 18/25 (72%), 4/16 (25%), 65%, p=0.004.
For `CC1=C(/C=C/C(C)=C/C=C/C(C)=C\C(=O)Nc2ccc(O)cc2)C(C)(C)CCC1`, the “tumour outcome (control, treated, inhibition, significance)” value runs as follows: (Carcinogen: N-BUTYL-N-(4-HYDROXYBUTYL)NITROSAMINE, 3817-11-6, Dose [Inhibitor]: 1.5 MMOL/KG DIET DAILY FOR 153 D STARTING ONE WK AFTER THE FINAL CARCINOGEN DOSE (STUDY DURATION: 210 D), Route [Inhibitor]: ORAL, Species: MOUSE, Strain/Sex: BDF/MALE, Target Tissue: Type of Lesion: URINARY BLADDER: TRANSITIONAL CELL CARCINOMA, Dose [Carcinogen]: 7.5 MG 1/WK FOR 8 WK, Promoter: NONE USED) 35/99 (35%), 21/99 (21%), 40%, p<0.05; (Carcinogen: N-BUTYL-N-(4-HYDROXYBUTYL)NITROSAMINE, 3817-11-6, Dose [Inhibitor]: 1.5 MMOL/KG/D IN DIET FOR 153 D STARTING 1 WK POST CARCINOGEN TREATMENT (STUDY DURATION: 210 D), Route [Inhibitor]: ORAL, Species: MOUSE, Strain/Sex: BDF/MALE, Target Tissue: Type of Lesion: URINARY BLADDER: TRANSITIONAL CELL CARCINOMA, Dose [Carcinogen]: 7.5 MG 1/WK FOR 8 WK, Promoter: NONE USED) 35/99 (35%), 21/99 (21%), 40%, p<0.05.
In the case of `O=C(O)CNC(=O)c1ccccc1`, the “tumour outcome (control, treated, inhibition, significance)” value (Carcinogen: N-BUTYL-N-(4-HYDROXYBUTYL)NITROSAMINE, 3817-11-6, Dose [Inhibitor]: 5% DIET DAILY FOR 34 WK STARTING AT COMPLETION OF CARCINOGEN TREATMENT (STUDY DURATION: 38 WK), Route [Inhibitor]: ORAL, Species: RAT, Strain/Sex: F344/MALE, Target Tissue: Type of Lesion: URINARY BLADDER: PAPILLOMA, Dose [Carcinogen]: 0.01% IN DRINKING WATER FOR 4 WK, Promoter: NONE USED) was 33%, 23%, 30%, not significant.
For the compound `N#C[SeH]`, the “tumour outcome (control, treated, inhibition, significance)” value is, setting by setting: (Carcinogen: 7,12-DIMETHYLBENZ[A]ANTHRACENE, 57-97-6, Dose [Inhibitor]: 0, 2 PPM (AS SELENIUM) IN DIET BEGINNING 2 WK PRIOR TO CARCINOGEN DOSE AND CONTINUING FOR DURATION OF STUDY (STUDY DURAT, Route [Inhibitor]: ORAL, Species: RAT, Strain/Sex: SPRAGUE-DAWLEY/FEMALE, Target Tissue: Type of Lesion: MAMMARY GLAND: ADENOCARCINOMA, Dose [Carcinogen]: 10 MG ONCE AT 55 D OF AGE, Promoter: NONE USED) 88%, 68%, 23%, not significant; (Carcinogen: 7,12-DIMETHYLBENZ[A]ANTHRACENE, 57-97-6, Dose [Inhibitor]: 0, 3 PPM (AS SELENIUM) IN DIET BEGINNING 2 WK PRIOR TO CARCINOGEN DOSE AND CONTINUING FOR DURATION OF STUDY (STUDY DURAT, Route [Inhibitor]: ORAL, Species: RAT, Strain/Sex: SPRAGUE-DAWLEY/FEMALE, Target Tissue: Type of Lesion: MAMMARY GLAND: ADENOCARCINOMA, Dose [Carcinogen]: 10 MG ONCE AT 55 D OF AGE, Promoter: NONE USED) 88%, 44%, 50%, p<0.05.
Take `Oc1cc(O)cc(O)c1`: the “tumour outcome (control, treated, inhibition, significance)” value under setting [1] was 100%, 83%, 17%, not significant.
In the case of `C=CC/C(=N/OS(=O)(=O)O)S[C@@H]1O[C@H](CO)[C@@H](O)[C@H](O)[C@H]1O`, the “tumour outcome (control, treated, inhibition, significance)” value (Carcinogen: 4-NITROQUINOLINE-1-OXIDE, 56-57-5, Dose [Inhibitor]: 0, 1200 PPM IN DIET BEGINNING 1 WK POST CARCINOGEN TREATMENT AND CONTINUING FOR 23 WK (STUDY DURATION: 37 WK), Route [Inhibitor]: ORAL, Species: RAT, Strain/Sex: ACI/N/MALE, Target Tissue: Type of Lesion: TONGUE: CARCINOMA, Dose [Carcinogen]: 10 PPM IN DRINKING WATER FOR 12 WK, Promoter: NONE USED) was 12/17 (71%), 0/15 (0%), 100%, p 0.0003; the “tumour outcome (control, treated, inhibition, significance)” value (Carcinogen: 4-NITROQUINOLINE-1-OXIDE, 56-57-5, Dose [Inhibitor]: 0, 1200 PPM IN DIET BEGINNING 1 WK POST CARCINOGEN TREATMENT AND CONTINUING FOR 23 WK (STUDY DURATION: 37 WK), Route [Inhibitor]: ORAL, Species: RAT, Strain/Sex: ACI/N/MALE, Target Tissue: Type of Lesion: TONGUE: PAPILLOMA, Dose [Carcinogen]: 10 PPM IN DRINKING WATER FOR 12 WK, Promoter: NONE USED) is on record as 5/17 (29%), 2/15 (13%), 55%, not calculated; the “tumour outcome (control, treated, inhibition, significance)” value (Carcinogen: 4-NITROQUINOLINE-1-OXIDE, 56-57-5, Dose [Inhibitor]: 0, 1200 PPM IN DIET BEGINNING 1 WK PRIOR TO CARCINOGEN TREATMENT AND CONTINUING FOR 1 WK POST CARCINOGEN TREATMENT (STUD, Route [Inhibitor]: ORAL, Species: RAT, Strain/Sex: ACI/N/MALE, Target Tissue: Type of Lesion: TONGUE: CARCINOMA, Dose [Carcinogen]: 10 PPM IN DRINKING WATER FOR 12 WK, Promoter: NONE USED) is listed as 12/17 (71%), 0/15 (0%), 100%, p 0.00003; the “tumour outcome (control, treated, inhibition, significance)” value (Carcinogen: 4-NITROQUINOLINE-1-OXIDE, 56-57-5, Dose [Inhibitor]: 0, 1200 PPM IN DIET BEGINNING 1 WK PRIOR TO CARCINOGEN TREATMENT AND CONTINUING FOR 1 WK POST CARCINOGEN TREATMENT (STUD, Route [Inhibitor]: ORAL, Species: RAT, Strain/Sex: ACI/N/MALE, Target Tissue: Type of Lesion: TONGUE: PAPILLOMA, Dose [Carcinogen]: 10 PPM IN DRINKING WATER FOR 12 WK, Promoter: NONE USED) is 5/17 (29%), 1/15 (7%), 76%, not calculated; the “tumour outcome (control, treated, inhibition, significance)” value (Carcinogen: DIETHYLNITROSAMINE, 55-18-5, Dose [Inhibitor]: 0, 1200 PPM IN DIET BEGINNING 1 WK PRIOR TO FIRST CARCINOGEN DOSE AND CONTINUING TO 1 WK POST LAST CARCINOGEN DOSE (STUD, Route [Inhibitor]: ORAL, Species: RAT, Strain/Sex: ACI/N/MALE, Target Tissue: Type of Lesion: LIVER: ADENOMA, Dose [Carcinogen]: 40 PPM IN DRINKING WATER FOR 5 WK, Promoter: NONE USED) was 10/10 (100%), 2/12 (17%), 83%, p<0.0002; the “tumour outcome (control, treated, inhibition, significance)” value (Carcinogen: DIETHYLNITROSAMINE, 55-18-5, Dose [Inhibitor]: 0, 1200 PPM IN DIET BEGINNING 1 WK PRIOR TO FIRST CARCINOGEN DOSE AND CONTINUING TO 1 WK POST LAST CARCINOGEN DOSE (STUD, Route [Inhibitor]: ORAL, Species: RAT, Strain/Sex: ACI/N/MALE, Target Tissue: Type of Lesion: LIVER: CARCINOMA, Dose [Carcinogen]: 40 PPM IN DRINKING WATER FOR 5 WK, Promoter: NONE USED) is listed as 10/10 (100%), 4/12 (33%), 67%, p<0.002.
On to `CC(C)(C)c1cc(C(C)(C)C)c(O)c(C(C)(C)C)c1`, for which the “tumour outcome (control, treated, inhibition, significance)” value under setting [1] is 100%, 93%, 7%, not significant.
